# Data: US12239645B2, “Targeted dosing for the treatment of complement mediated disorders” (Achillion Pharmaceuticals, Inc., priority 2018, dated 2025)
# Tests used:
# [1] = system: complement alternative pathway (AP) functional activity; test: SAD study: alternative pathway functional activity by AP Wieslab assay; assay type: in vivo, human
# Experimental: […] were dosed and evaluated in 4 dose groups with ten subjects receiving placebo (Table 1). The first dose group had 6 active and 6 placebo subjects; subsequent groups had 6 active and 2 placebo subjects each. Each group was followed for 28 days after dosing. All subjects were monitored for safety through the last scheduled visit at Day 28. Blood and urine samples were collected at predefined time points from Days 1 to 4 to determine plasma and urine concentrations of Compound 1 and from Days 1 to 7 to determine complement related activities. Results of serum AP activity measured by AP Wieslab assay as well as plasma Bb, factor D level and several other PD biomarkers were determined.
# For all subjects, blood samples were collected at specific protocol-defined time points from Day 1 to 7 to determine serum AP activity ex vivo using AP hemolysis assay and AP Wieslab assay.
# A graphical display of mean complement AP functional activity (% relative to positive control) through Day 7 (reported in days) and within 24 hours of dosing (by randomized treatment group and overall) can be found in FIG. 8B and FIG. 8A, respectively.
# [2] = system: Bb fragment of complement Factor B; test: MAD study single-dose cohorts: plasma Bb concentration by ELISA; assay type: in vivo, human; conditions: 240 mg single dose
# Experimental: FIG. 15 is a graphical display of mean plasma Bb concentration as determined by ELISA assay for all subjects in the first 24 hours after administration of Compound 1 at single doses of 240 mg in fasted subjects (n=6), 120 mg in fed subjects (n=6) and placebo (n=4). Horizontal dashed gridlines represent: upper limit of normal (1.42 μg/ml); lower limit of normal (0.48 μg/ml); and lower limit of quantitation (LLOQ) (0.33 μg/ml). The x-axis is Time in hours and the y-axis is Mean Plasma Bb Concentration measured in μg/mL.
# Serum AP hemolysis activity was assessed in samples collected at predefined time points from Day 1 (pre-dose) through Day 7. Ex vivo serum AP inhibition was more prolonged in the 240 mg dose group than previously observed in the SAD study at doses up to 120 mg (FIG. 14). […] Mean pre-dose (Day 1, 0 h) activity among active subjects was 123.02% (240 mg) and 110.43% (120 mg). Activity was reduced to 10% or lower from 1.5 h through 16 h in the 240 mg group, and from 2 h through 6 h in the 120 mg group. Activity was recovered to nearly pre-dose levels by 48 hours. AP activity in placebo subjects in contrast varied little from the pre-dose value of 109.52%, with a minimum value among all time points of 81.46%. […]
compound,measurement,setting,value
"CC(=O)c1nn(CC(=O)N2[C@H](C(=O)Nc3nc(Br)ccc3C)C[C@@]3(C)C[C@@H]23)c2ccc(-c3cnc(C)nc3)cc12 [Compound 1, (1R,3S,5R)-2-(2-(3-acetyl-5-(2-methylpyrimidin-5-yl)-1H-indazol-1-yl)acetyl)-N-(6-bromo-3-methylpyridin-2-yl)-5-methyl-2-azabicyclo[3.1.0]hexane-3-carboxamide]",time mean inhibition of 90% or greater maintained post-dosing,[1]; 40 mg dose group,at least 6 hours
same,time of nadir in AP functional activity post-dose,[1]; 40 mg dose group,1.5 h
same,lowest mean (±SD) AP functional activity (relative to positive control),[1]; 40 mg single dose,1.25 (±1.153) %
same,time of nadir in AP functional activity post-dose,[1]; 80 mg and 120 mg dose groups,3 h
same,lowest mean (±SD) AP functional activity (relative to positive control),[1]; 80 mg single dose,0.13 (±0.097) %
same,lowest mean (±SD) AP functional activity (relative to positive control),[1]; 120 mg single dose,0.09 (±0.102) %
same,Inhibition of AP functional activity,"[1]; all subjects, by 2 hours post-dose",> 90%
same,Inhibition of AP functional activity,"[1]; all treated subjects, 0.5 hours post-dose",> 80%
same,time mean inhibition of 90% or greater maintained post-dosing,[1]; higher dose groups studied,at least 10 hours
same,time plasma Bb remained near its nadir post-dose,[2],at least 16 hours
